Conditions: pH 7.4

Row | Substance | Permeability (PAMPA)
1 | 2-(Benzo[d][1,3]dioxol-5-yl)-4-chloro-3-(ethoxymethyl)-7-methoxyquinoline [28a] | 802±370 10^−6 cm/s
2 | Ethyl 2-(benzo[d][1,3]dioxol-5-yl)-5-methoxy-4-(methylamino)quinoline-3-carboxylate [25b] | 1240±154 10^−6 cm/s
3 | 2-(Benzo[d][1,3]dioxol-5-yl)-3-(ethoxymethyl)-5-methoxyquinoline [30b] | 2796±1746 10^−6 cm/s
4 | Ethyl 2-(benzo[d][1,3]dioxol-5-yl)-7-methoxy-4-(methylamino)quinoline-3-carboxylate [25a] | 2013±179 10^−6 cm/s

— paper PMC2850272 (Bioorganic & medicinal chemistry, 2010)
